Legend:
[1] = system: Chinese hamster V79 cells; test: Colony formation assay, radio- and chemosensitization; type: cell-based; conditions: V79, gamma-rays, normoxic condition
[2] = system: poly (ADP-ribose) glycohydrolase (PARG); design: method as in PMID 37973295; conditions: cited from earlier work
[3] = system: HR activity in HeLa DR-GFP cells; test: DR-GFP DNA repair reporter assay; type: cell-based, human; conditions: 30 µM SQAP, p < 0.05
Protocol: (§1) HR and NHEJ activities were assessed using the DR-GFP reporter system[25] and the EJ5-GFP reporter system, respectively. pDRGFP and pCBASceI were gifts from Dr. Maria Jasin (Addgene plasmid #26475 and #26477). pimEJ5GFP was a gift from Dr. Jeremy Stark (Addgene plasmid # 44026). The assays were performed as previously described. Briefly, HeLa cells expressing DR-GFP, or EJ5-GFP were transfected with a plasmid encoding an I-SceI endonuclease using FuGENE HD transfection reagent (Promega, Madison, WI, USA). HR and NHEJ frequencies were analyzed by counting GFP positive cells with a FACS Lyric flow cytometer (BD Biosciences, San Jose, CA, USA) at 48 h post-transfection. Drug treatment was performed 3 h after transfection, and medium was replaced with the drug until FACS analysis. Relative HR and NHEJ efficiencies were calculated by normalizing to control cell values. A total of 50,000 cells were counted for each condition.

[4] = system: Chinese hamster V79 cells; test: Colony formation assay, radio- and chemosensitization; type: cell-based
Protocol: For hypoxia irradiation, cell cultures were placed in Aneropak Kenki system (Mitsubishi Gas Chemical, Tokyo, Japan) with oxygen meter to confirm pO2 below 0.1%. Cells were kept in hypoxia for 3 h before irradiation.

[5] = system: NHEJ activity in HeLa EJ5-GFP cells; test: EJ5-GFP DNA repair reporter assay; type: cell-based, human; conditions: 30 µM SQAP, p < 0.05
Protocol: as §1

Topo I = target: T1, Topo I (Homo sapiens, UniProt P11387); test: Topoisomerase I assay; type: biochemical; conditions: supercoiled pHOT1 DNA, 37 °C, 30 min
T1 sequence (P11387 1-765): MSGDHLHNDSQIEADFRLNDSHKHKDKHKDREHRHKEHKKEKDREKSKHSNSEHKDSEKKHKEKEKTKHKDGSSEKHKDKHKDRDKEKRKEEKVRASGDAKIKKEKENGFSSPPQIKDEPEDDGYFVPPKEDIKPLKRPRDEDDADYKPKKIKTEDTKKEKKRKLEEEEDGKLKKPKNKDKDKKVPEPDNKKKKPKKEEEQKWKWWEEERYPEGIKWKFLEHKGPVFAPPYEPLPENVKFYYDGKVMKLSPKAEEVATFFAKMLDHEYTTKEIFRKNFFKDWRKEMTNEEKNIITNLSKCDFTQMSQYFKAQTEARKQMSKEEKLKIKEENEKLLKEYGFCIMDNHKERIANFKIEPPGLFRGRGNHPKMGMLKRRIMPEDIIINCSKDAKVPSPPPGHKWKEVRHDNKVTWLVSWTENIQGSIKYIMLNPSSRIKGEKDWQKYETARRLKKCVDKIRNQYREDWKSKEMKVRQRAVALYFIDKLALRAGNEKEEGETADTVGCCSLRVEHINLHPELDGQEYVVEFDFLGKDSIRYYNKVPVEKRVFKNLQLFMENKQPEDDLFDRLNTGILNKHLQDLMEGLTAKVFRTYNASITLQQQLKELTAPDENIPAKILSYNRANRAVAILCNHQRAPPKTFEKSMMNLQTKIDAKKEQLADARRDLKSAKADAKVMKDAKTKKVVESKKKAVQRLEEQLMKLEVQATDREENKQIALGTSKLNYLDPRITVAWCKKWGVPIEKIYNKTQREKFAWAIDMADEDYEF
Protocol: (§2) For topoisomerase (Topo) I assay, a mixture of 125 ng of supercoiled pHOT1 DNA, 1U of Topo I enzyme, and various concentrations of SQAP in 1 mM Tris-HCl (pH7.9), 0.1 mM EDTA, 0.015 M NaCl, 0.01% BSA, 0.01 mM Spermidine and 0.5% glycerol was incubated at 37 °C for 30 min. For Topo II alpha assay, a mixture of 10 µL containing of 50 ng of […] DNA in 0.05 M Tris-HCl (pH8), 1U of Topo II alpha, various concentrations of SQAP in 0.15 M NaCl, 10 mM MgCl2, 0.5mM DTT, 30 µg/mL of BSA, 2 mM ATP was incubated at 37 °C for 30 min. After the reaction was terminated, electrophoresis was conducted at 50 V for 3 h, followed by ethidium bromide staining. DNA images were obtained by a Bio-Rad imager (Bio-Rad, Hercules, CA, USA) and quantified with Image Lab software (Bio-Rad).

[6] = in vivo ref 34; cited from earlier work
[7] = system: seven canine cancer cell lines (Abrams, D17, Moresco, CML-6M, Jones, CML-10C2, STSA-1); test: Colony formation assay, gamma-ray radiosensitization in normoxia or hypoxia; type: cell-based; conditions: 30 µM SQAP
Protocol: Irradiation was conducted by JL Shepard Mark I ^137Cs irradiator (nominal 6000 Ci) with dose rate of approximately 2.5 Gy per minute at room temperature. For hypoxia irradiation, cell cultures were placed in Aneropak Kenki system (Mitsubishi Gas Chemical, Tokyo, Japan) with oxygen meter to confirm pO2 below 0.1%. Cells were kept in hypoxia for 3 h before irradiation.

[8] = system: CHO wild type, EM9, xrs5 and 51D1 cells; test: Sister chromatid exchange assay; type: cell-based, Chinese hamster
Protocol: CHO cells were synchronized into G1 phase using mitotic shake-off method. Cells in the G1 phase were irradiated, and 10 µM of BrdU was added. After 20 h, colcemid was added for 6 h to arrest cells in metaphase. Collected cells were treated with hypotonic KCl solution and fixed using methanol: acetic acid (3:1) as the standard method. Metaphase chromosome spread was prepared on glass slides and treated with 5 µg/mL of Hoechst 33258 solution for 15 min and exposed to UVB for 15 min and treated with 2X SSC solution at 80 °C for 15 min. Cells were stained with 5% Giemsa stain solution. At least 50 metaphase spreads were analyzed for SCE scoring per experiment.

Topo II alpha = Topo II alpha (Homo sapiens, UniProt P11388); test: Topoisomerase II alpha assay; type: biochemical; conditions: kinetochore DNA, 37 °C, 30 min
Protocol: as §2

Topo II alpha, sequence (P11388 whole entry): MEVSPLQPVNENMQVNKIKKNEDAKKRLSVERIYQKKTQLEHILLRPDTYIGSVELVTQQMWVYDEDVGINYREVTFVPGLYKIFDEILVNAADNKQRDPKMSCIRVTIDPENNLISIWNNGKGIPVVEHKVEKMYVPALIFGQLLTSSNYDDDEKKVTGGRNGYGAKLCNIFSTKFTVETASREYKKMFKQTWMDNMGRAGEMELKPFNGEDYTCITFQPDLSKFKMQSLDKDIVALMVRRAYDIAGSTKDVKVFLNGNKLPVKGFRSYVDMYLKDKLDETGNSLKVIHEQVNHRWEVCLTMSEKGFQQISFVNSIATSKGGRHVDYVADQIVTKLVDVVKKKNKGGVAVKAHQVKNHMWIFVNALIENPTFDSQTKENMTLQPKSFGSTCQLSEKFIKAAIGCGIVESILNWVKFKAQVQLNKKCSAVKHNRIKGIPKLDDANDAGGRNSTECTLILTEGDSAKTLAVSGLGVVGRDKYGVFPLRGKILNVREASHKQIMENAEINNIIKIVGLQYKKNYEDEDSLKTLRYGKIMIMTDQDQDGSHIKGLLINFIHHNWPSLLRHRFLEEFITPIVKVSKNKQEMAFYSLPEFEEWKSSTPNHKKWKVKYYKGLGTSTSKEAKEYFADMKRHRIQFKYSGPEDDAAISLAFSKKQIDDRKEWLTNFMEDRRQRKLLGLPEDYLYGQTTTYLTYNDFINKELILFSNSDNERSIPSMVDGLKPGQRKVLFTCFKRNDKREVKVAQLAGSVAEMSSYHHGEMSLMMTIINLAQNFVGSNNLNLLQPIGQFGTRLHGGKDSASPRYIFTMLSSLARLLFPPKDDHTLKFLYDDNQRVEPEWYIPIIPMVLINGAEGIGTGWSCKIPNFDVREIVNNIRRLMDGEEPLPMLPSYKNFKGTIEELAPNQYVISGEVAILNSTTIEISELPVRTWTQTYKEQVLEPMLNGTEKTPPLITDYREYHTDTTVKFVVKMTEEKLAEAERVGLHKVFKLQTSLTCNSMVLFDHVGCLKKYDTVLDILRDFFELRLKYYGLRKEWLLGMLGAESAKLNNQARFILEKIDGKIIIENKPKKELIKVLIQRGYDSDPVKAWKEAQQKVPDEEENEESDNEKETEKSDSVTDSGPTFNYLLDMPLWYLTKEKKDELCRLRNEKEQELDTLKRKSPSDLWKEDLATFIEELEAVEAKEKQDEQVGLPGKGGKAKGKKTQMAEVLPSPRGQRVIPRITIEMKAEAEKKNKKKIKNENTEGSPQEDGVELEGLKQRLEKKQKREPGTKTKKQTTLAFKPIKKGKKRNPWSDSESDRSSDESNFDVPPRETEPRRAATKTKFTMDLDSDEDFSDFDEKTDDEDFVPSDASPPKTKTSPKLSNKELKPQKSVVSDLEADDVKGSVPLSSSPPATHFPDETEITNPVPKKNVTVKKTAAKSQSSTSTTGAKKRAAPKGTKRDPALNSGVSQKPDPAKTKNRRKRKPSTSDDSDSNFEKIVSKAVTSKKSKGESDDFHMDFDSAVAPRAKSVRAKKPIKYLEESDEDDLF

SMILES: CCCCCCCCCCCCCCCCCC(=O)OCCCO[C@H]1O[C@H](CS(=O)(=O)O)[C@@H](O)[C@H](O)[C@H]1O [SQAP, Alpha-sulfoquinovosylacyl-1,3-propanediol]
- sensitization enhancement ratio (SER) [1]: 1.3
- PARG inhibition [2]: inhibitory effect
- HR activity [3]: significantly reduced
- radiosensitization ([4]; V79, SQAP pretreatment alone): did not enhance radiation sensitivity
- radiosensitization ([4]; V79, continuous SQAP treatment before and after irradiation, normoxic and hypoxic): Radiosensitization was observed
- NHEJ activity [5]: significantly reduced
- IC50 (Topo I): 25 µM
- clearance from normal tissues and persistence in tumors [6]: rapidly cleared from normal tissues but persists in tumors for several hours
- changes in OER values with and without SQAP treatment [7]: not observed
- radiosensitization to gamma-ray exposure ([7]; both normoxic and hypoxia conditions): induced radiosensitization
- spontaneous sister chromatid exchange formation ([8]; 51D1 (rad51d mutant, HR deficient), non toxic SQAP concentrations): no reduction
- spontaneous sister chromatid exchange formation ([8]; CHO wild type, 5 to 20 µM SQAP, significant from 10 µM): reduced
- spontaneous sister chromatid exchange formation ([8]; EM9 (XRCC1 mutant), 5 to 20 µM SQAP, significant from 10 µM): reduced
- spontaneous sister chromatid exchange formation ([8]; xrs5 (Ku80 mutant), 5 to 20 µM SQAP, significant from 10 µM): reduced
- IC50 (Topo II alpha): 9 µM

From article PMC12644462, “A novel radiosensitizer α-sulfoquinovosyl-acylpropanediol (SQAP) inhibits DNA repair pathways and sensitize cells to cancer chemotherapeutic agents” (Scientific Reports, 2025)
